According to patent US20030114441A1, “Heterocyclic anti-epileptogenic agents and methods of use thereof” (Queen's University at Kingston, priority 2001, published 2003):

Legend:
MES-induced seizure = assay: Maximal electroshock seizure test (MES); type: in vivo, male Carworth Farms #1 mice or male Sprague-Dawley rats; set-up: key to MES 0.5 hr / MES 4 hr: — = no activity; details: for MES 0.5 hr / MES 4 hr: i.p. at 300, 100 and 30 mg/kg; for MES 0.5 hr: stimulus 0.5 hr after administration; for MES 4 hr: stimulus 4 hr after administration
Protocol: The MES and PTZ assays were performed by the Anticonvulsant Drug Development (ADD) Program in the Epilepsy Branch of the NIH (see, e.g., Stables and Kupferberg (1997) The NIH anticonvulsant Drug Development (ADD) Program: Preclinical Anticonvulsant Screening Project, Libby & Sons). All compounds were tested with either male Carworth Farms #1 mice or male Sprague-Dawley rats. Each test compound was administered via an i.p. injection at 300, 100, and 30 mg/kg. For the maximal electroshock seizure test (MES), corneal electrodes primed with a drop of electrolyte solution (0.9% NaCl) are applied to the eyes of the animal and an electrical stimulus (50 mA for mice, 150 mA for rats; 60 Hz) is delivered for 0.2 seconds at 0.5 and 4.0 hours after test compound administration. The animals are restrained by hand and are released at the moment of stimulation in order to permit observation of the seizure.

PTZ-induced seizure = assay: Subcutaneous pentylenetetrazole (PTZ)-induced seizure model; type: in vivo, male Carworth Farms #1 mice or male Sprague-Dawley rats; set-up: key to PTZ 0.5 hr / PTZ 4 hr: — = no activity; details: for PTZ 0.5 hr / PTZ 4 hr: i.p. at 300, 100 and 30 mg/kg; for PTZ 0.5 hr: PTZ 0.5 hr after administration; for PTZ 4 hr: PTZ 4 hr after administration
Protocol: The MES and PTZ assays were performed by the Anticonvulsant Drug Development (ADD) Program in the Epilepsy Branch of the NIH (see, e.g., Stables and Kupferberg (1997) The NIH anticonvulsant Drug Development (ADD) Program: Preclinical Anticonvulsant Screening Project, Libby & Sons). All compounds were tested with either male Carworth Farms #1 mice or male Sprague-Dawley rats. Each test compound was administered via an i.p. injection at 300, 100, and 30 mg/kg. In the subcutaneous pentylenetetrazole (PTZ)-induced seizure model, seizures are induced 0.5 and 4 hrs after test compound administration by i.p. injection of PTZ (85 mg/kg in mice and 70 mg/kg in rats). Protection is defined as the inhibition of clonic spasms over a 30 min observation period.

[1] = system: pilocarpine-induced seizures; assay: Pilocarpine assay (seizure model); type: in vivo, adult male Sprague-Dawley rats; details: 100 mg/kg i.p., 20 min before pilocarpine hydrochloride 350 mg/kg i.p.; 30 minute observation
Protocol: A seizure model is performed using adult male Sprague-Dawley rats in accordance with the guidelines of the Canada Council on Animal Care and under the supervision of the Queen's University Animal Ethics Committee. This test procedure was adopted from previous work by Turski et al. (1984) Brain Res. 321:237. The test compounds are administered at 100 mg/kg by intraperitoneal (i.p.) injection. Seizures are induced 20 minutes afterwards by i.p. administration of pilocarpine hydrochloride (350 mg/kg). Protection is defined as the absence of clonic spasms over a 30 minute observation period after pilocarpine administration.

[2] = system: spontaneous recurrent seizures; assay: Spontaneous recurrent seizures (SRS) model of epilepsy; type: in vivo, adult male Sprague-Dawley rat; details: 20 mg/kg/day i.v. for 10 day
Protocol: The “spontaneous recurrent seizures” (SRS) model of epilepsy is used to evaluate candidate compounds in a model for Phase 1 epileptogenesis (see, e.g., Mello, E. et al., Epilepsia (1993) 34:985; Cavalheiro, J. et al., Epilepsia (1991) 32:778). In the SRS model, an adult male Sprague-Dawley rat (c. 260 g) is given pilocarpine by injection (380 mg/kg i.p.). Within 25 minutes, the animal enters status epilepticus, which lasts for 3 hours, and then diazepam is administered to stop seizures. The rat is allowed to spontaneously recover and is given food and water ad lib. and maintained on a 12 hour/12 hour light/dusk cycle. Beginning on about day 13-15, the rats develop spontaneous recurrent seizures, which occur at the rate of about 4-5 per week. The rats are videotaped 8 hours per day 5 days per week, and the videotapes are reviewed for behavioral seizures (including head nodding, forelimb clonus, and rearing), which are counted. The animals are watched for two months, permitting evaluation of a sufficient number of seizures. An experimental compound for evaluation can be administered at either of two times: Time 1, on Day 1, after the cessation of status epilepticus but before the onset of SRS; or Time 2, on Day 30, when the rats have been experiencing SRS for about two weeks. […]

[3] = @ 100 mg, i.p., 4 hr after administration

Compound | MES 0.5 hr (MES-induced seizure) | PTZ 0.5 hr (PTZ-induced seizure) | PTZ 4 hr (PTZ-induced seizure) | Pilocarpine, activity in words [1] | MES 4 hr (MES-induced seizure) | further results
COC(=O)CC(c1ccc2ccccc2n1)N(Cc1ccccc1)Cc1ccccc1 (stereo not shown) | — | — | — | Inactive |  | MES 4 hr, fraction of animals (MES-induced seizure; [3]): 1/3 @ 100 mg
O=C(CC(c1ccc2ccccc2n1)N(Cc1ccccc1)Cc1ccccc1)N(Cc1ccccc1)Cc1ccccc1 (stereo not shown) | — | — | — | Min. Active | — | 
COC(=O)CC(NC(C)c1ccccc1)c1cc2ccccc2o1 (stereo not shown) | — |  |  | Active | — | PTZ 4 hr, fraction of animals (PTZ-induced seizure; [3]): 1/5 @ 100 mg; PTZ 0.5 hr, fraction of animals (PTZ-induced seizure; @ 300 mg, i.p., 0.5 hr after administration): 2/5 @ 300 mg
COC(=O)CC(NC(C)c1ccccc1)c1cnc2ccccc2c1 (stereo not shown) | — | — | — | Min. Active | — | 
COC(=O)CC(NC(C)c1ccccc1)c1ccc2ccccc2n1 (stereo not shown) | — | — | — | Active | — | 
COC(=O)CC(NC(C)c1ccccc1)c1ccc2c(c1)cc(C)n2S(=O)(=O)c1ccccc1 (stereo not shown) |  |  |  | Active |  | 
NC(CC(=O)O)c1ccc2c(c1)OCCO2 (stereo not shown) |  |  |  | Min. Active |  | 
CC(NC(CC(=O)O)c1ccc2ccccc2n1)c1ccccc1 (stereo not shown) |  |  |  | Active |  | 
COC(=O)CC(Nc1ccccc1OC)c1ccc2ccccc2n1 (stereo not shown) |  |  |  | Active |  | 
COC(=O)CC(Nc1ccccc1OC)c1cc2ccccc2nc1Cl (stereo not shown) |  |  |  | Min. Active |  | 
NC(CC(=O)O)c1cccs1 (stereo not shown) | — | — | — | Active | — | 
O=C1NC(=O)C(c2ccccc2)(c2ccccc2)N1 [phenytoin] |  |  |  |  |  | Preventing the onset of seizures (Time 1) ([2]; Time 1 (Day 1, after status epilepticus, before onset of SRS)): ineffective; Effective at decreasing seizure frequency by 50% or more (Time 2) ([2]; Time 2 (Day 30, established SRS)): 75%
